Earlier results, collected in patent publication US12133918B2, “Partially pre-gelatinized cassava starch as pharmaceutical excipient” (Griffin Gamma, LLC, priority 2021, dated 2024).

Conditions: literature and experimental data

BCS class | permeability (BCS) | solubility (BCS) | Structure (SMILES)
Class I | highly permeable | highly soluble | CC(=O)Oc1ccccc1C(=O)O [Acetylsalicylic acid, acetylsalicylic acid]
 | highly permeable | highly soluble | COc1ccccc1OCC(O)CO (centres unmarked) [Guaifenesin, 3-(2-methoxyphenoxy)-1,2-propanediol]
